Data taken from US20240299436A1, “Use of Inosine in Preparing Drug For Treatment of Corona Virus Disease 2019” (PLA ACADEMY OF MILITARY MEDICAL SCIENCES, priority 2021, published 2024).

What was measured:
SARS-COV-2 [1] = assay: Survival and body weight of SARS-COV-2-infected Balb/c mice; type: in vivo; conditions: preventive administration of inosine
SARS-COV-2 [2] = assay: Lung tissue pathology by H&E staining in SARS-COV-2-infected mice; type: in vivo, mouse; conditions: oral inosine administration group vs SARS-COV-2 infection group
Text: The effect of inosine on pathological changes of lung tissue was observed by hematoxylin and eosin (H&E) staining.

IL-6 = assay: Serum cytokine IL-6 level by ELISA in SARS-COV-2-infected mice; type: in vivo, mouse; conditions: inosine group
Experimental: In the process of cytokine storm (CRS), IL-6 is one of the most critical cytokines, and severity of the CRS is closely related to the increase in IL-6. In the cytokine storm induced by SARS-COV-2, IL-6 plays an important role. In order to determine whether the inosine could inhibit the secretion of IL-6, the level of cytokine IL-6 in mouse serum was determined by ELISA.

Structure (SMILES): OC[C@H]1O[C@@H](n2cnc3c(O)ncnc32)[C@H](O)[C@@H]1O [inosine]
- day after infection on which body weights regained gradually (SARS-COV-2 [1]): 8 days
- weight loss (SARS-COV-2 [1]; vs model group): lower weight loss
- survival time of the Balb/c mice (SARS-COV-2 [1]; vs model group (died on days 4-7)): significantly prolonged
- inflammatory infiltration of lung tissue (SARS-COV-2 [2]): significantly improved
- pathological changes of lung tissue (H&E staining) (SARS-COV-2 [2]): the lung tissues were structurally intact, alveolar space was clear, no congestion was noted in the pulmonary alveolar wall
- level of cytokine IL-6 in mouse serum (IL-6): could inhibit the high expression of SARS-COV-2 induced IL-6
